The subject of assay [1] is HeLa. The assay can be described thus: (§1) Cytotoxic activity was measured in human […] cells (HeLa). The class given is functional.
Assay [2] concerns HeLa. Described as §1. The class given is functional. This is another data set of the same source.
Assay [3] relates to HEL. The assay can be described thus: Antiviral activity was measured against cytomegalovirus (CMV) AD-169 strain in human embryonic lung (HEL) cells. The class given is functional, cell-based.
The test system of assay [4] is HEL. The assay can be described thus: Antiviral activity was measured against cytomegalovirus (CMV) Davis strain in human embryonic lung (HEL) cells. The class given is functional, cell-based.
In assay [5] the test system is HEL. Description: Antiviral activity was measured against Varicella-Zoster virus (VZV) 07/1 strain in human embryonic lung (HEL) cells. It is filed as functional, cell-based.
Assay [6] deals with HEL. Description: Antiviral activity was measured against Varicella-Zoster virus (VZV) YS/R strain in human embryonic lung (HEL) cells. It is filed as functional, cell-based.
In assay [7] the test system is MT4. The assay can be described thus: The potential anti-HIV activity was evaluated against HIV-1 IIIb strain in MT-4 cells. The class given is functional, cell-based. The conditions noted are these: Homo sapiens.
For assay [8], the system named is MT4. Description: The potential anti-HIV activity was evaluated against HIV-2 ROD strain in MT-4 cells. It is filed as functional, cell-based. The following applies: Homo sapiens.
Assay [9] can be described thus: Cytotoxic activity was measured in human embryonic lung cells(HeLa). The class given is functional.
The test system of assay [10] is Human immunodeficiency virus 1. Description: Tested for its ability to inhibit replication of HIV-1 in MT-4 cells, activity expressed as IC50. It is filed as functional. The following applies: Human immunodeficiency virus 1, MT4.

One may read the CC50 as the concentration that lowers cell viability or growth by half. A low value points to greater toxicity to the cells. By IC50 is commonly meant the concentration that inhibits the measured activity by half. Low readings indicate greater potency, high ones weaker potency.

Values after ≈ are worked out from the molar mass of the structure shown.

For `O=C(OCCOCN1c2ccccc2C(=O)N(Cc2ccccc2)S1(=O)=O)c1ccccc1`, the CC50 in the assay with HeLa [1] was 24 µg/mL (≈ 51.4 µM); in the assay with HeLa [2], 24 µg/mL (≈ 51.4 µM); in assay [9], greater than 125 µg/mL. In addition, the IC50 was 12 µg/mL (≈ 25.7 µM) with HEL [3]; 12 µg/mL (≈ 25.7 µM) with HEL [4]; greater than 12 µg/mL with HEL [5]; greater than 12 µg/mL in the assay with HEL [6]; 79.3 µg/mL (≈ 170 µM) in the assay on MT4 [7]; greater than 86 µg/mL with MT4 [8].
Turning to `C#CCOCN1c2ccccc2C(=O)N(Cc2ccccc2)S1(=O)=O`, the CC50 with HeLa [1] is greater than 50 µg/mL; with HeLa [2] it was greater than 50 µg/mL; in assay [9] it was 23 µg/mL (≈ 64.5 µM). Besides, the IC50 in the assay on HEL [3] is 8.4 µg/mL (≈ 23.6 µM); in the assay on HEL [4] it was 11 µg/mL (≈ 30.9 µM); in the assay on HEL [5], greater than 5 µg/mL; in the assay on HEL [6], greater than 5 µg/mL; in the assay with MT4 [7], greater than 8 µg/mL; in the assay on MT4 [8], greater than 8 µg/mL.
For `O=C1c2ccccc2N(Cc2ccccc2)S(=O)(=O)N1COCc1ccccc1`, the results for the CC50 (in the assay with HeLa [1]; with HeLa [2]; in assay [9]) were greater than 50 µg/mL, greater than 50 µg/mL and greater than 125 µg/mL, respectively. In addition, the IC50 was 3.6 µg/mL (≈ 8.81 µM) in the assay with HEL [3]; 3.6 µg/mL (≈ 8.81 µM) in the assay with HEL [4]; greater than 5 µg/mL in the assay with HEL [5]; 3 µg/mL (≈ 7.34 µM) in the assay on HEL [6]; 3.7 µg/mL (≈ 9.06 µM) in [10]; 3.7 µg/mL (≈ 9.06 µM) in the assay with MT4 [7]. The molecule further showed an IC50 in the assay with MT4 [8] greater than 99 µg/mL.
With `O=C1c2ccccc2N(COCc2ccccc2)S(=O)(=O)N1Cc1ccccc1`, the CC50 with HeLa [1] was greater than 50 µg/mL; in the assay with HeLa [2], greater than 50 µg/mL; in assay [9] it was 25 µg/mL (≈ 61.2 µM). Besides, the IC50 was 11 µg/mL (≈ 26.9 µM) with HEL [3]; 12 µg/mL (≈ 29.4 µM) in the assay on HEL [4]; 11 µg/mL (≈ 26.9 µM) with HEL [5]; 13 µg/mL (≈ 31.8 µM) with HEL [6]; greater than 8 µg/mL in the assay with MT4 [7]; greater than 8 µg/mL in the assay on MT4 [8].
`Nc1nc2c(ncn2COCCO)c(=O)[nH]1` [ACYCLOVIR] yielded a CC50 with HeLa [1] of 200 µg/mL (≈ 888 µM).
With `Nc1nc2c(ncn2COC(CO)CO)c(=O)[nH]1` [GANCICLOVIR], in the assay with HeLa [2], the 50% cytotoxic concentration (CC50) was greater than 50 µg/mL. Also, the IC50 in the assay on HEL [3] was 1.2 µg/mL (≈ 4.7 µM); in the assay on HEL [4], 1.3 µg/mL (≈ 5.09 µM).

Values taken from ChEMBL document CHEMBL1129905, “Benzothiadiazine dioxide acyclonucleosides as lead compounds for the development of new agents against human cytomegalovirus and varicella-zoster virus infections” (Bioorg Med Chem Lett, 1997).
